Source: PMC9414972, “α-Glucosidase and α-Amylase Inhibitory Potentials of Quinoline–1,3,4-oxadiazole Conjugates Bearing 1,2,3-Triazole with Antioxidant Activity, Kinetic Studies, and Computational Validation” (Pharmaceuticals, 2022)
Like-named read-outs stand apart in the source and are kept apart here.

Experiments:
[1] = DPPH radical scavenging activity; settings: DPPH radical scavenging, 30 min, 25 °C
Protocol: The DPPH assay is used conventionally to quantify a compound’s ability to trap free radicals.
The compounds were evaluated for their ability to scavenge stable DPPH radicals, using a modification of the method by Turkoglu et al..

[2] = Ferric reducing antioxidant power (FRAP); settings: ferric reducing antioxidant power
Protocol: FRAP is a ferric (Fe^3+) to ferrous (Fe^2+) ions reduction assay that measures a compound’s electron-donating capacity, i.e., the antioxidant’s reducing power.
The mixture was incubated at 50 °C for 20 min, followed by acidification with 100 μL trichloroacetic acid (10%). After centrifugation at 3500 rpm for 10 min, 200 μL of the supernatant was transferred into another test tube containing 200 μL of distilled water and 0.8 mL of FeCl3 (0.1%). Finally, the absorbance was read at 700 nm, and the total reductive antioxidant power was calculated thus: Ferric reducing antioxidant power (%)=Absorbance of compound/Absorbance of 500µM gallic acid×100

[3] = target: T1, porcine pancreatic amylase (Sus scrofa, UniProt P00690); assay: α-Amylase inhibitory activity (starch/DNS); type: biochemical; settings: porcine pancreatic amylase, starch, pH 6.9, 25 °C; read-out: IC50 α-Amylase
T1 construct: purchased Merck
T1 sequence (P00690 16-511): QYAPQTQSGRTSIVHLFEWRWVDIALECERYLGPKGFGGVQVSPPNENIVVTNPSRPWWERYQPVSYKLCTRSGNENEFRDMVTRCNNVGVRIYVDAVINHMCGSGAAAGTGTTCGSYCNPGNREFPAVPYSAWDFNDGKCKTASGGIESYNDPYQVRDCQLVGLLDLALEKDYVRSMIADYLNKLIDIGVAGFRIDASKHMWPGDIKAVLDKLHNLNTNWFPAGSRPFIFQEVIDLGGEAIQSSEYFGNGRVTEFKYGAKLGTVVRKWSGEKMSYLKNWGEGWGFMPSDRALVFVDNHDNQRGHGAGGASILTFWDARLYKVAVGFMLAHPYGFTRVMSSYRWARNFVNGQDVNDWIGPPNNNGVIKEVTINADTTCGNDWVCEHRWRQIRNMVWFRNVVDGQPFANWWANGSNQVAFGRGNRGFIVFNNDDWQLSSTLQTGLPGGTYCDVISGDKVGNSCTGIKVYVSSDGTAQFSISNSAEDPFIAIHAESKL
Protocol: α-Amylase inhibitory activity was determined according to Ibitoye et al. with slight modifications. […] The reaction in the mixture was terminated with a 1 mL dinitrosalicylate reagent before boiling for 10 min. The cooled mixture was diluted with 5 mL distilled water, and the absorbance was read at 540 nm. The inhibitory activity was calculated using the formula below: % Inhibition=1−Absorbance of compound/Absorbance of control×100

α-glucosidase [4] = target: T2, α-glucosidase (Saccharomyces cerevisiae, UniProt P38158); assay: biochemical; settings: pNPG substrate, pH 6.8, 37 °C; read-out: IC50 α-Glucosidase
T2 construct: purchased Merck
T2 sequence (P38158 whole entry): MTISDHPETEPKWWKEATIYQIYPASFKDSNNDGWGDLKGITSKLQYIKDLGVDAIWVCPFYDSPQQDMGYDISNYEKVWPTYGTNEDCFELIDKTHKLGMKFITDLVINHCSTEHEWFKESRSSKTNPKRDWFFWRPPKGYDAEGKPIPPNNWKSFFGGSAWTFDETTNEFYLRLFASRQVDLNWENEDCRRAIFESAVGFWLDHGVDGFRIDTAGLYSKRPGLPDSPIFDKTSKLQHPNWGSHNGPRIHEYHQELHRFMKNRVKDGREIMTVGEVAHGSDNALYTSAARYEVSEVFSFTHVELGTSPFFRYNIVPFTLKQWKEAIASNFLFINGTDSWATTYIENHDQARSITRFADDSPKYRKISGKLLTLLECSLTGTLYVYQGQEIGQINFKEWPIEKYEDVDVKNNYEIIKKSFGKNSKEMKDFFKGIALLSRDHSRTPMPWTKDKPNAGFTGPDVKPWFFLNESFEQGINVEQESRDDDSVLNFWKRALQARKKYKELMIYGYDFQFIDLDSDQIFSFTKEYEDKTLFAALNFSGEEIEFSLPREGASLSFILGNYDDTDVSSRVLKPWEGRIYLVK
Protocol: The α-glucosidase inhibitory activity was evaluated using a previous method with slight modifications.

[5] = Nitric oxide (NO) scavenging activity; settings: nitric oxide radical scavenging, 37 °C, 2 h
Protocol: The screening of the present compound series for NO radical scavenging activity (Table 2) identified excellent NO scavengers.
The antioxidant capacity of the compounds to scavenge nitric oxide radicals was determined using a modified version of the protocol by Kurian et al.. Briefly, 250 μL of sodium nitroprusside (10 mM) prepared in sodium phosphate buffer (pH 7.4) was added to 500 μL of the compound solution (62.5–500 μM) or distilled water (control). The resulting solution was incubated at 37 °C for 2 h. Then, 250 μL of Griess reagent was added to the reaction mixture before the absorbance was measured at 546 nm. The nitric oxide scavenging activity of the compounds was calculated with the formula: Nitric oxide scavenging (%)=1−Absorbance of compound/Absorbance of control×100

α-glucosidase [6] = target: T2, α-glucosidase; assay: Mode of α-glucosidase inhibition (enzyme kinetics, Lineweaver–Burk); type: biochemical; settings: Lineweaver–Burk plots; inhibitor 0, 75, 150, 300 µM; pNPG
Description: Understanding a drug’s mode of inhibiting its target is crucial to improve the drug’s activity profile and target specificity. Although orthosteric inhibition, in which the ligand binds at the target’s active site, dominates among currently available drugs, allosteric inhibitors (i.e., drugs binding at regions […] the active site) are desirable due to their reduced vulnerability to active site mutation or to displacement through native substrate overload at the active site. Accordingly, the mode of α-glucosidase inhibition was investigated for promising compounds 4b, 4i, 4j, 4k, 4l, 12k, and 12m, using a time-dependent para-nitrophenyl-[…] (pNPG) assay; the results are presented as Lineweaver–Burk plots (Figure 4). […] Conceivably, this can result in decreased systemic glucose concentration thus alleviating postprandial hyperglycemia and its associated complications.
The mode of inhibition of α-glucosidase of the 4b, 4i, 4j, 4k, 4l, 12k, and 12m compounds was determined using the method described by Kazeem et al. 2013, with modifications. Briefly, 50 µL of the 4b, 4i, 4j, 4k, 4l, 12k, and 12m compounds at (0 µM, 75 µM, 150 µM and 300 µM) concentrations were preincubated with 100 µL of α-glucosidase solution for 10 min at 25 °C in one set of tubes. In another set of tubes, α-glucosidase was preincubated with 50 µL of phosphate buffer (pH 6.9). 25 µL of pNPG at increasing concentrations (0.125–4.0 mg/mL) was added to both sets of solution to start the reaction. Immediately, the absorbance of the resulting solution was monitored for 2 min in a spectrophotometer at 405 nm. The amount of 4-nitrophenol released was determined from a 4-nitrophenol standard curve and then converted to reaction velocities.

α-glucosidase [7] = target: T2, α-glucosidase; design: method as in ref 22 (Taha et al.); settings: ref 22 (Taha et al.), cited from earlier work
α-glucosidase [8] = target: T2, α-glucosidase; design: method as in ref 23 (Izgi et al.); settings: ref 23 (Izgi et al.); read-out: α-glucosidase inhibition IC50; cited from earlier work
α-glucosidase [9] = target: T2, α-glucosidase; design: method as in ref 28 (Asemanipoor et al.); settings: ref 28 (Asemanipoor et al.); read-out: α-glucosidase inhibition IC50; cited from earlier work

SMILES: Fc1ccc(CSc2nnc(COc3cccc4cccnc34)o2)cc1 [4k, 2-[(4-Fluorobenzyl)thio]-5-[(quinolin-8-yloxy)methyl]-1,3,4-oxadiazole]
- melting point: 106.9 to 109.4 °C
- IC50 [1]: 81.1 µM
- IC50 [2]: > 500 µM
- IC50 [3]: > 500 µM
- IC50 (α-glucosidase [4]): 23.7 µM
- IC50 [5]: > 500 µM
- mode of α-glucosidase inhibition (α-glucosidase [6]): non-competitive

SMILES: Clc1ccc(CSc2nnc(COc3cccc4cccnc34)o2)cc1 [4l, 2-[(4-Chlorobenzyl)thio]-5-[(quinolin-8-yloxy)methyl]-1,3,4-oxadiazole]
- melting point: 101.4 to 104.2 °C
- IC50 [1]: 77.7 µM
- IC50 [2]: > 500 µM
- IC50 [3]: > 500 µM
- IC50 (α-glucosidase [4]): 25.2 µM
- IC50 [5]: > 500 µM
- mode of α-glucosidase inhibition (α-glucosidase [6]): non-competitive

SMILES: c1ccc(-n2cc(CSc3nnc(COc4cccc5cccnc45)o3)nn2)cc1 [12k, 2-{[(1-Phenyl-1H-1,2,3-triazol-4-yl)methyl]thio}-5-[(quinolin-8-yloxy)methyl]-1,3,4-oxadiazole]
- melting point: 122 to 128 °C
- IC50 [1]: 85.7 µM
- IC50 [2]: > 500 µM
- IC50 [3]: > 500 µM
- IC50 (α-glucosidase [4]): 22.5 µM
- IC50 [5]: > 500 µM
- mode of α-glucosidase inhibition (α-glucosidase [6]): non-competitive

SMILES: Fc1ccc(-n2cc(CSc3nnc(COc4cccc5cccnc45)o3)nn2)cc1 [12m, 2-{[(1-(4-Fluorophenyl)-1H-1,2,3-triazol-4-yl)methyl]thio}-5-[(quinolin-8-yloxy)methyl]-1,3,4-oxadiazole]
- melting point: 134 to 140 °C
- IC50 [1]: 88.7 µM
- IC50 [2]: > 500 µM
- IC50 [3]: > 500 µM
- IC50 (α-glucosidase [4]): 26.8 µM
- IC50 [5]: > 500 µM
- mode of α-glucosidase inhibition (α-glucosidase [6]): non-competitive

SMILES: O=C(N/N=C/c1ccc(O)c(O)c1)c1ccc(-c2nnc(-c3ccc4ncccc4c3)o2)cc1 [A]
- fold superior α-glucosidase inhibition compared with acarbose (α-glucosidase [7]): 15 fold
- IC50 (α-glucosidase [7]; read-out: α-glucosidase inhibition IC50): 2.6 µM

SMILES: c1ccc(-c2nnc(-c3c[nH]c4ncccc34)o2)cc1 [B]
- IC50 (α-glucosidase [8]): 400 µM

SMILES: CCc1ccc(NC(=O)Cn2cc(COc3ccc(-c4nc5ccccc5[nH]4)cc3)nn2)cc1 [C]
- IC50 (α-glucosidase [9]): 35 µM
